Consider 13 compounds from patent US20260297542A1, “HERBICIDE RESISTANT PLANTS” (SYNGENTA CROP PROTECTION AG, priority 2023, published 2026).

The target in test [1] is T1, His-TEV-AtPP01 ΔcTP L479M (SEQ ID NO: 371) (Arabidopsis thaliana, UniProt P55826, L479M).
T1 construct: with cTPs removed; made in house; host or cells: E. coli BL21 (DE3), His GraviTrap, partially purified
T1 sequence (P55826 with tags, fused parts or gaps L479M): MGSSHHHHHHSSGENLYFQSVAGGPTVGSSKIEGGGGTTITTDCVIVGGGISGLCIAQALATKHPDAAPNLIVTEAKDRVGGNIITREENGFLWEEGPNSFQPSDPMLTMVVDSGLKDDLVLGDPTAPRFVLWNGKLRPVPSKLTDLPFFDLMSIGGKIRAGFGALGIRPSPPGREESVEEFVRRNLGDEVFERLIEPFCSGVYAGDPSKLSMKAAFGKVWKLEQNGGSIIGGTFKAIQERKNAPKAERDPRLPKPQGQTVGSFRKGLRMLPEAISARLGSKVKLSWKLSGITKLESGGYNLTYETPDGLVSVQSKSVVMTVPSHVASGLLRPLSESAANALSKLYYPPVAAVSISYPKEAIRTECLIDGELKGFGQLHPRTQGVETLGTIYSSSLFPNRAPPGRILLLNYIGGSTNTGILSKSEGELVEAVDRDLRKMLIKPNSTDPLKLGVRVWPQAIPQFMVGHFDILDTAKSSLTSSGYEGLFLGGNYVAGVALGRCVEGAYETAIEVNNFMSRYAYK
Briefly: PPO fluorescence IC50 assay, partially purified enzyme. The format is biochemical. The text has this: A pET24 plasmid containing a DNA sequence encoding variants of AtPPO1 derived from Arabidopsis thaliana with cTPs removed and both a 6×His tag and TEV protease cleavage tag added at the N-terminus, codon-optimised for expression in E. coli, and under control of a T7 promoter, was synthesised by Twist Bioscience. The following variants were synthesised: WT AtPPO1 (SEQ ID NO: 370), AtPPO1 L479M (SEQ ID NO: 371), AtPPO1 L479N (SEQ ID NO: 372), AtPPO1 S305L Y426V (SEQ ID NO: 374) and AtPPO1 S305L Y426V L479M (SEQ ID NO: 373). This plasmid was expressed in E. coli BL21 (DE3) with 50 μg/mL kanamycin selection. 10 mL of overnight cultures grown at 37° C. were used to inoculate 1 L AIM (AIM-Terrific Broth Base including Trace elements, Formedium) in 2 L shake flasks. Cultures were grown at 37° C., 200 rpm for 3 hours and then overnight at 26° C. Cells were harvested centrifugation. 5-15 g of cell pellet was lysed in and resuspended in ratio of 1:1.5 in lysis buffer (20 mM Tris pH8, 500 mM sodium chloride, 10% glycerol, 1× complete Protease EDTA-free Inhibitor Tablet (Roche), 10 mM imidazole). The resuspension was sonicated at 75% using 10 cycles of 30 seconds, 40 seconds off. After sonication Triton X-100 was added to the lysates at a final concentration of 0.5%. The lysates were centrifuged at 20,000 rpm for 25 min at 4° C. Cleared lysates were loaded on His GraviTrap (Cytiva) columns, washed with 20 mL of lysis buffer and eluted in elution buffer (20 mM Tris pH8, 500 mM sodium chloride, 10% glycerol, 200 mM imidazole, 0.03% (v/v) Triton X-100). The eluate was desalted on a PD10 column and 2.5-3.2 mL was collected. Protein concentration was measured and calculated using the absorbance at 280 nm. Extracts were diluted 1 in 4 and 10 uL was analysed by SDS PAGE.
Partially purified Protoporphyrinogen Oxidase enzymes were assayed for activity using fluorescence adapted from the method of Shepherd & Dailey (Anal Biochem. 2005 344(1) 115-121). The assay was performed in black 384 well plates with a clear bottom and the total volume of the reaction mixture was 91 ul. The final assay mixture contained 100 mM K2HPO4 pH7.2, 1 mM Na2EDTA, 5 mM DTT, 20% glycerol (v/v), 0.05% Tween 20 (v/v), 1.1% DMSO (v/v), 1 uM protoporphyrinogen IX and 1.5 nM enzyme. Compounds were dissolved in DMSO at 1 mM and a 4-fold serial dilution carried out to give 8 rates. 1 ul was added to the assay mixture. This gave final compound concentrations of 11, 2.7, 0.69, 0.17, 0.04, 0.01, 0.002, 0.0007 uM. Enzyme and inhibitor were preincubated for 5 minutes prior to starting the reaction with the addition of the substrate. […] IC50s were calculated using GraphPad Prism 7.05 nonlinear regression (Table 6). Each compound was tested in duplicate.

For the next test, the system named is Wildtype Samsun tobacco. As to the kind of experiment: herbicide damage to wild-type tobacco. Format: in vivo. Particulars: 120 g ai/ha, 0 no visible damage, 100 complete death. The text has this:
(§1) Herbicidal damage is visually assessed across the population and a herbicide damage score given at 7 and 14 days. A score of 0 indicates no visible damage or stunting whereas a score of 100 indicates a complete death of the plant. 20 transgenic events (i.e. individual transgenic plants) from each GM tobacco line are transplanted to soil 1 week prior to spraying with PPO inhibiting compounds. WT tobacco is included as a control.
(§2) Herbicidal damage was visually assessed across the population and a herbicide damage score given at 7 and 14 days. A score of 0 indicates no visible damage or stunting whereas a score of 100 indicates a complete death of the plant. 20 transgenic events (i.e. individual transgenic plants) from each GM tobacco line were transplanted to soil 1 week prior to spraying with PPO inhibiting compounds. WT tobacco is included as a control.
The wild-type Samsun plants show significant damage at the day 7 and 14 assessment time.

For test [2], the system named is tobacco plants containing pBin TMV AtPPO1. Briefly: herbicide damage to transgenic tobacco. The format is in vivo. Conditions: 120 g ai/ha, per transgenic event, 0 no visible damage, 100 complete death.
From the text: Populations of transgenic tobacco comprising 20-30 transgenic events per plant transformation constructs are generated as described in Example 4. These lines were clonally propagated and 1 clone per event was sprayed with PPO herbicides to confirm the herbicide resistance.
as §1, §2

“And” between values parts separate entries of the source, which are not always exact repeats. Identical values can stand only once. Like-named read-outs stand apart in the source and are kept apart here.

With `C#CCN1C(=O)C(F)(F)Oc2cc(F)c(-n3c(=O)n(C)c(=S)n(C)c3=O)cc21` [Herbicide B, trifludimoxazin], the midpoint of inhibition in test [1], the IC50, lay at 0.8 nM. Also, the percentage of damage in the test with Wildtype Samsun tobacco (7 DAT) is 100%; in the test with Wildtype Samsun tobacco (14 DAT) it was 100%; in test [2] (7 DAT) it was 100% and 99% and 87% and 97%; in test [2] (14 DAT), 100% and 80% and 98% and 99%.

For `COC(=O)C(C)ON=Cc1cc(-n2c(=O)cc(C(F)(F)F)n(C)c2=O)c(F)cc1Cl` (stereo not shown) [Flufenoximacil, flufenoximacil], the IC50 (usually the point on the concentration scale where inhibition reaches its midpoint) in test [1] (role: inhibitor, 1 uM protoporphyrinogen IX, <1.0 is below detection limit of assay) came to 0.7 nM.

Turning to `CC(C)Oc1cc(-n2nc(C(C)(C)C)oc2=O)c(Cl)cc1Cl` [Oxadiazaon], inhibition in test [1] was half-maximal at 11.2 nM (IC50).

Compound `CCOC(=O)COc1ncccc1Oc1cc(-n2c(=O)cc(C(F)(F)F)n(C)c2=O)c(F)cc1Cl` [Herbicide A, epyrifenacil] yielded an IC50 in test [1] of 0.8 nM.

`C#CCN1C(=O)COc2cc(F)c(N3C(=O)C4=C(CCCC4)C3=O)cc21` [Flumioxazin, flumioxazin] came in with an IC50 in test [1] of 1 nM.

Consider `C#CCOc1cc(-n2nc3n(c2=O)CCCC3)c(Cl)cc1Cl` [Azafenadin], for which, in test [1], the IC50 came out at 0.7 nM.

For the compound `CCOC(=O)COc1cc(-c2nn(C)c(OC(F)F)c2Cl)c(F)cc1Cl` [Pyraflufen-ethyl, pyraflufen-ethyl], the IC50 in test [1] turned out to be 0.7 nM.

For `CCOC(=O)[C@]1(C)CC(c2cc(-n3c(=O)n(C)c(=S)n(C)c3=O)c(F)cc2Cl)=NO1` [Herbicide D, ethyl (5S)-3-[2-chloro-5-(3,5-dimethyl-2,6-dioxo-4-thioxo-1,3,5-triazinan-1-yl)-4-fluoro-phenyl]-5-methyl-4H-isoxazole-5-carboxylate], in test [1], the IC50 came to 0.6 nM. For the same compound, the percentage of damage was 98% and 100% with Wildtype Samsun tobacco (7 DAT); 100% with Wildtype Samsun tobacco (14 DAT); 100% and 95% and 99% and 97% and 65% and 92% and 98% in test [2] (7 DAT); 100% and 95% and 99% and 75% and 97% and 96% in test [2] (14 DAT).

For `C=CCOC(=O)C(C)(C)OC(=O)c1cc(-n2c(=O)cc(C(F)(F)F)n(C)c2=O)ccc1Cl` [Butafenacil, butafenacil], 0.7 nM corresponded to half-maximal inhibition in test [1] (IC50).

The compound `CC(C)N(C)S(=O)(=O)NC(=O)c1cc(-n2c(=O)cc(C(F)(F)F)n(C)c2=O)c(F)cc1Cl` [Herbicide E, saflufenacil] displayed an IC50 in test [1] of 2.4 nM.

Compound `CCOC(=O)C1(C)CC(c2cc(-n3c(=O)cc(C(F)(F)F)n(C)c3=O)c(F)cc2Cl)=NO1` (stereo not shown) [Herbicide C, 3-(2-chloro-4-fluoro-5-(3-methyl-2,6-dioxo-4-trifluoromethyl-3,6-dihydropyrimidin-1(2H)-yl)phenyl)-5-methyl-4,5-dihydroisoxazole-5-carboxylic acid ethyl ester] returned an IC50 in test [1] of 0.8 nM. Moreover, the percentage of damage in the test with Wildtype Samsun tobacco (7 DAT) is 100%; with Wildtype Samsun tobacco (14 DAT), 100%; in test [2] (7 DAT), 100% and 95% and 94% and 97%; in test [2] (14 DAT), 100% and 90% and 95% and 97% and 99%.

Turning to `C#CCN(C)c1c(C#N)cnn1-c1nn2c(c1Cl)CCCC2` [Pyraclonil], the IC50 in test [1] came out at 2.3 nM.

Turning to `CS(=O)(=O)NC(=O)c1cc(Oc2ccc(C(F)(F)F)cc2Cl)ccc1[N+](=O)[O-]` [Fomesafen, fomesafen], half-maximal inhibition in test [1] (IC50) required 1.2 nM.
